Source: the kinase profiling compilation of Christmann-Franck et al. (2016)

Experiments:
Test in all cases: KINOMEscan competition binding
Conditions in all cases: compound 10.0 µM
PTK2B (human) = PTK2B (human) (UniProt Q14289)
TTK (human) = TTK (human) (UniProt P33981)
CHUK (human) = CHUK (human) (UniProt O15111)
RPS6KA5 KD2 (human) = RPS6KA5 KD2 (human) (UniProt O75582)
CDK2 (human) = CDK2 (human) (UniProt P24941)
CAMK1D (human) = CAMK1D (human) (UniProt Q8IU85)
CLK4 (human) = CLK4 (human) (UniProt Q9HAZ1)
Sequence of CLK4 (human) (Q9HAZ1 whole entry, looked up): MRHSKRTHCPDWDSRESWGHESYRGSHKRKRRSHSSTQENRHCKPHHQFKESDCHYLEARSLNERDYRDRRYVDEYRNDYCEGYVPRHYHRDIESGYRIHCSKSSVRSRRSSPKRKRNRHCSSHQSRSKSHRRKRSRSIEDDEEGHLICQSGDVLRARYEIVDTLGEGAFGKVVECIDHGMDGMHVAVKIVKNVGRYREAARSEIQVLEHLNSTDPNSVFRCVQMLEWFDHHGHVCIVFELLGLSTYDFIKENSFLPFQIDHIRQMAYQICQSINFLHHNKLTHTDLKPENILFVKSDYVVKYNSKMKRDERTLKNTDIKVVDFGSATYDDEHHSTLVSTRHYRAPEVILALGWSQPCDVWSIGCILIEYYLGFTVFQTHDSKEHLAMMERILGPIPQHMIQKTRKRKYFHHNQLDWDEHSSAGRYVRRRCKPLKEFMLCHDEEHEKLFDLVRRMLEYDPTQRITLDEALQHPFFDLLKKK

PKN3 (M.tuberculosis) = PKN3 (M.tuberculosis) (UniProt Q6P5Z2)
RPS6KA2 KD2 (human) = RPS6KA2 KD2 (human) (UniProt Q15349)
Sequence of RPS6KA2 KD2 (human) (Q15349 whole entry, looked up): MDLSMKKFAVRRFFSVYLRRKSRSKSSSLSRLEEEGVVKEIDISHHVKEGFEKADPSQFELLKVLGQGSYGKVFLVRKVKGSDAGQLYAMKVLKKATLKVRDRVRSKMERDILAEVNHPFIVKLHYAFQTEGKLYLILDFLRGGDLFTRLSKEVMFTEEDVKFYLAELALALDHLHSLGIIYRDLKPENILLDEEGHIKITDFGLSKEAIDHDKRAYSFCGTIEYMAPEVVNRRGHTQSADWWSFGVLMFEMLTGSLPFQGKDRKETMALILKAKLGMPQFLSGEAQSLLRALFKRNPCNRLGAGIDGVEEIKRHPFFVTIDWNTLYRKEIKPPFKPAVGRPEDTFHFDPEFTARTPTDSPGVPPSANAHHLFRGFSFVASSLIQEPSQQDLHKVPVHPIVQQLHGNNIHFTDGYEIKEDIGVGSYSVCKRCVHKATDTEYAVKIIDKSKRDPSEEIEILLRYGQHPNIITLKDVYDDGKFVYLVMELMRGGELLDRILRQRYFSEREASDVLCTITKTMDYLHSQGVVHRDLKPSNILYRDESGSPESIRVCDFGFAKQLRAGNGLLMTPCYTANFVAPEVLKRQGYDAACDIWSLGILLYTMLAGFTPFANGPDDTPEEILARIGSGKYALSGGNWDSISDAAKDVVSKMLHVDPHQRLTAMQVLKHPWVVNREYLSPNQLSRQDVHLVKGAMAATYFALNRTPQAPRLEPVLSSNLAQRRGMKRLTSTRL

GSK3A (human) = GSK3A (human) (UniProt P49840)
LIMK1 (human) = LIMK1 (human) (UniProt P53667)
[1] = tested on: KIT (human), P10721 [L576P]
RIPK2 (human) = RIPK2 (human) (UniProt O43353)
CSNK1D (human) = CSNK1D (human) (UniProt P48730)
PIP4K2C (human) = PIP4K2C (human) (UniProt Q8TBX8)
MERTK (human) = MERTK (human) (UniProt Q12866)
DAPK3 (human) = DAPK3 (human) (UniProt O43293)
MARK4 (human) = MARK4 (human) (UniProt Q96L34)
PAK1 (human) = PAK1 (human) (UniProt Q13153)
Sequence of PAK1 (human) (Q13153 whole entry, looked up): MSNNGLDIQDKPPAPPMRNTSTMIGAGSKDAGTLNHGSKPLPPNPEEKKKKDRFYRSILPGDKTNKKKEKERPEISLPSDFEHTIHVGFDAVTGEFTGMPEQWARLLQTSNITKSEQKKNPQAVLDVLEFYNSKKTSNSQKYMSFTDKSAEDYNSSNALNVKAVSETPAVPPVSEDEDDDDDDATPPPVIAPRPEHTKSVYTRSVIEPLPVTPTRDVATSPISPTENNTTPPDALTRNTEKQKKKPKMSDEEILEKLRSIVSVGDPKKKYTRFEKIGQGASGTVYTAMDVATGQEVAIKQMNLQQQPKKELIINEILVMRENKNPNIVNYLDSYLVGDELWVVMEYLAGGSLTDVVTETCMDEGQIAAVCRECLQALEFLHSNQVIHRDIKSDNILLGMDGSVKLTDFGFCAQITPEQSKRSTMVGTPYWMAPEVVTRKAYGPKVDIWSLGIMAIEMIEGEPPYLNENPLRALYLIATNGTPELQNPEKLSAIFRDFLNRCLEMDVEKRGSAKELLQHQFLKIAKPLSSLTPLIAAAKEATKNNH

CDKL5 (human) = CDKL5 (human) (UniProt O76039)
MAP3K2 (human) = MAP3K2 (human) (UniProt Q9Y2U5)
AAK1 (human) = AAK1 (human) (UniProt Q2M2I8)
MLTK (human) = MLTK (human) (UniProt Q9NYL2)
[2] = target: JAK1 JH2 pseudokinase (human) (UniProt P23458)
STK16 (human) = STK16 (human) (UniProt O75716)
Sequence of STK16 (human) (O75716 whole entry, looked up): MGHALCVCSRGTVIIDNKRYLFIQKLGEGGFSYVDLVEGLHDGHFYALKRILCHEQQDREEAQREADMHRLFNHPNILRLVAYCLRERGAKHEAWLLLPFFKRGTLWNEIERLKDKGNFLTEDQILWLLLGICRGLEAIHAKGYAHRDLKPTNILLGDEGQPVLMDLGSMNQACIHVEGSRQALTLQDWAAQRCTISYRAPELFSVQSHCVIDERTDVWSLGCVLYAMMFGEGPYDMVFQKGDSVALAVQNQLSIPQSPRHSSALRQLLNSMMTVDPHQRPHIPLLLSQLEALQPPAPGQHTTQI

CDK9 (human) = CDK9 (human) (UniProt P50750)
MAPK14 (human) = MAPK14 (human) (UniProt Q16539)
EPHA6 (human) = EPHA6 (human) (UniProt Q9UF33)
Sequence of EPHA6 (human) (Q9UF33 whole entry, looked up): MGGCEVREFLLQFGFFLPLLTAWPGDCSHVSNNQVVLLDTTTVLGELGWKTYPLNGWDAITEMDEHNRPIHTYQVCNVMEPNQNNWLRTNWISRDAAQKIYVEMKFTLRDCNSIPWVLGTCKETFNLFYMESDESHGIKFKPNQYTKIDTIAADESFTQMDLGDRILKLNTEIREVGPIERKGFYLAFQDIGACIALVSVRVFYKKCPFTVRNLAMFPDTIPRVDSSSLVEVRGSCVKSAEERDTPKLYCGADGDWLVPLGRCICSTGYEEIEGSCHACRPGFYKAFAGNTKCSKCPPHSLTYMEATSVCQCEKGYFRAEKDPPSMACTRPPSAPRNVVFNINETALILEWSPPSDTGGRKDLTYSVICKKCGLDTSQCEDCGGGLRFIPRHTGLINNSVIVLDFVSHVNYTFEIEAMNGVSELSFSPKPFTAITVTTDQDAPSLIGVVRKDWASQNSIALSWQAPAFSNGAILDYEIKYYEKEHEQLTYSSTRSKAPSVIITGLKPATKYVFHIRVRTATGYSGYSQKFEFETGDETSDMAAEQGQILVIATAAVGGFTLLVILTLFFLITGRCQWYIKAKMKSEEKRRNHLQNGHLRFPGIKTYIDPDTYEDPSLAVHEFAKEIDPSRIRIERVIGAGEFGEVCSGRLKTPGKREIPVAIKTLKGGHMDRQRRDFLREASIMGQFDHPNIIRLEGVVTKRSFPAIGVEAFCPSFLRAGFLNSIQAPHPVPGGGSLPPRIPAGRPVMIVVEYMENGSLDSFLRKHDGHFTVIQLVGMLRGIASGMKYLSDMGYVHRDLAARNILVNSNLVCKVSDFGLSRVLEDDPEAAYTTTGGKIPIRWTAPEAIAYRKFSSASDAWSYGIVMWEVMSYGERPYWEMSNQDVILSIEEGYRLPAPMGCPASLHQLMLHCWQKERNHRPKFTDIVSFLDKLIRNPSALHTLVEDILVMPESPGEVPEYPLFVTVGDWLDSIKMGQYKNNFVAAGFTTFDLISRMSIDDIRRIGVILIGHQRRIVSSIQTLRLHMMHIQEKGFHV

MAP3K15 (human) = MAP3K15 (human) (UniProt Q6ZN16)
PIP5K1C (human) = PIP5K1C (human) (UniProt O60331)
STK11 (human) = STK11 (human) (UniProt Q15831)
CAMK2D (human) = CAMK2D (human) (UniProt Q13557)
MST1R (human) = MST1R (human) (UniProt Q04912)
[3] = target: JAK3 JH1 catalytic (human) (UniProt P52333)
FYN (human) = FYN (human) (UniProt P06241)
GRK1 (human) = GRK1 (human) (UniProt Q15835)
ICK (human) = ICK (human) (UniProt Q9UPZ9)
PRKCD (human) = PRKCD (human) (UniProt Q05655)
FGR (human) = FGR (human) (UniProt P09769)
PRKD2 (human) = PRKD2 (human) (UniProt Q9BZL6)

Sequence of TTK (human) (P33981 whole entry, looked up): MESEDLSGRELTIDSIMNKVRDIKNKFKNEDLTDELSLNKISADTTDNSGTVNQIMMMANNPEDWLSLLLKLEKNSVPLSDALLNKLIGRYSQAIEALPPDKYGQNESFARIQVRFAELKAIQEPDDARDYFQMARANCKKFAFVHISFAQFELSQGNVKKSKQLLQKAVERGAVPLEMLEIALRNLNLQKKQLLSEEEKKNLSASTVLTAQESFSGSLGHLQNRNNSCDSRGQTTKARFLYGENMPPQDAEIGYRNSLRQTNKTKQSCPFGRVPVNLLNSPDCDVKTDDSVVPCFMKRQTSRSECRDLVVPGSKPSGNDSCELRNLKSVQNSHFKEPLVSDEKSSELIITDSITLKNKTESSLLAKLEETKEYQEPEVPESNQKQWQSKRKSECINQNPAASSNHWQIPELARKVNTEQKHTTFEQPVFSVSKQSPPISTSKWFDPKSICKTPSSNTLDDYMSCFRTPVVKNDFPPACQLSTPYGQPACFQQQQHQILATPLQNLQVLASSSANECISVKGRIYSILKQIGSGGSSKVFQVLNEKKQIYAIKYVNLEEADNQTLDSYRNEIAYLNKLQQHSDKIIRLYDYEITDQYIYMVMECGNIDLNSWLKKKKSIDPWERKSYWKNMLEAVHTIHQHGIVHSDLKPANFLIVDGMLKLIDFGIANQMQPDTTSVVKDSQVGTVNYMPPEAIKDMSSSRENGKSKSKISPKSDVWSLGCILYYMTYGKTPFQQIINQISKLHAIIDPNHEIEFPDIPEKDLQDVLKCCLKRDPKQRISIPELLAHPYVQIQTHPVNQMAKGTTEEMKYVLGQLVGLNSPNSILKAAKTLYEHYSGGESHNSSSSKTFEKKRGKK
Sequence of PTK2B (human) (Q14289 whole entry, looked up): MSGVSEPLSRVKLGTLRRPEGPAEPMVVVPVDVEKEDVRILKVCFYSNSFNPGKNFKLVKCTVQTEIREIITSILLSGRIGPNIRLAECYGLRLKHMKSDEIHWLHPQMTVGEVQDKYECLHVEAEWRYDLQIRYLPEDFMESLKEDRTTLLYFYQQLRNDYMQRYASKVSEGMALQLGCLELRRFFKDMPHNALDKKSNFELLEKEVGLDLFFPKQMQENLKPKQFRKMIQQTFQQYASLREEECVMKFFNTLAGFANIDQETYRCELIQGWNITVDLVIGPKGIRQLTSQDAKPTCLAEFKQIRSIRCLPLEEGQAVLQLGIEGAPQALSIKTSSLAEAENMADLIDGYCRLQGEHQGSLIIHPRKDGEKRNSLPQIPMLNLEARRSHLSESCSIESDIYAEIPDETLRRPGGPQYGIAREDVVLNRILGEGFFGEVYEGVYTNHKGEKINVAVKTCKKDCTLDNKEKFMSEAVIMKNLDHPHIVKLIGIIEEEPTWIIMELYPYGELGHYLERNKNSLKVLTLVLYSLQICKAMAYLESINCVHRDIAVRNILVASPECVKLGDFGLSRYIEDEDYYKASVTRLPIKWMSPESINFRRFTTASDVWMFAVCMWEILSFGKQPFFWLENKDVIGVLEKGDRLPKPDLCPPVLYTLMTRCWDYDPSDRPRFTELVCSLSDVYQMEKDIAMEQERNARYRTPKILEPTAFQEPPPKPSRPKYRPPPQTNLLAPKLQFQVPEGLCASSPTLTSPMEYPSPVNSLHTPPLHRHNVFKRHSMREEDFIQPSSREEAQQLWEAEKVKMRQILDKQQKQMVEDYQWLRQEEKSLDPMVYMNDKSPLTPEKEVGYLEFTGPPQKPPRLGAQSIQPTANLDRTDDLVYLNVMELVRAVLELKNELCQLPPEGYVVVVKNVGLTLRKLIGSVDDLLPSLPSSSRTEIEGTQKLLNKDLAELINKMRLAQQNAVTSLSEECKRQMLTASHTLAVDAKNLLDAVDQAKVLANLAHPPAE

SMILES | kinase still bound, per cent of control (PTK2B (human)) | kinase still bound, per cent of control (TTK (human)) | kinase still bound, per cent of control (CHUK (human)) | kinase still bound, per cent of control (RPS6KA5 KD2 (human)) | kinase still bound, per cent of control (CDK2 (human)) | kinase still bound, per cent of control (CAMK1D (human)) | kinase still bound, per cent of control (CLK4 (human)) | kinase still bound, per cent of control (PKN3 (M.tuberculosis)) | kinase still bound, per cent of control (RPS6KA2 KD2 (human)) | kinase still bound, per cent of control (GSK3A (human)) | kinase still bound, per cent of control (LIMK1 (human)) | kinase still bound, per cent of control (RIPK2 (human)) | kinase still bound, per cent of control (CSNK1D (human)) | kinase still bound, per cent of control (PIP4K2C (human)) | kinase still bound, per cent of control (MERTK (human)) | kinase still bound, per cent of control (DAPK3 (human)) | kinase still bound, per cent of control (MARK4 (human)) | kinase still bound, per cent of control (PAK1 (human)) | kinase still bound, per cent of control (CDKL5 (human)) | kinase still bound, per cent of control (MAP3K2 (human)) | further results
C=CC(=O)Nc1cc(-n2c(=O)ccc3cnc4ccc(-c5cn[nH]c5)cc4c32)ccc1C | 96% | 21% | 100% | 75% | 84% | 86% | 3% | 12% | 92% | 13% | 100% | 56% | 47% | 2.7% | 100% | 61% | 64% | 100% | 3.3% | 88% | kinase still bound, per cent of control [1]: 68%; kinase still bound, per cent of control (AAK1 (human)): 18%; kinase still bound, per cent of control (MLTK (human)): 6.9%; kinase still bound, per cent of control [2]: 34%; kinase still bound, per cent of control (STK16 (human)): 52%; kinase still bound, per cent of control (CDK9 (human)): 100%; kinase still bound, per cent of control (MAPK14 (human)): 97%; kinase still bound, per cent of control (EPHA6 (human)): 94%; kinase still bound, per cent of control (MAP3K15 (human)): 56%; kinase still bound, per cent of control (PIP5K1C (human)): 42%; kinase still bound, per cent of control (STK11 (human)): 100%; kinase still bound, per cent of control (CAMK2D (human)): 36%; kinase still bound, per cent of control (MST1R (human)): 99%; kinase still bound, per cent of control [3]: 0%; kinase still bound, per cent of control (FYN (human)): 90%; kinase still bound, per cent of control (GRK1 (human)): 75%; kinase still bound, per cent of control (ICK (human)): 67%; kinase still bound, per cent of control (PRKCD (human)): 80%; kinase still bound, per cent of control (FGR (human)): 57%; kinase still bound, per cent of control (PRKD2 (human)): 89%
NC(=O)Nc1cc(-c2cccc(F)c2)sc1C(=O)N[C@@H]1CCCNC1 | 0.6% | 12% | 0% | 9% | 93% | 0.2% | 2.4% | 0% | 1.9% | 100% | 62% | 40% | 15% | 87% | 0.05% | 2.9% | 2.2% | 1.2% | 100% | 0% | kinase still bound, per cent of control (AAK1 (human)): 1.3%; kinase still bound, per cent of control (MLTK (human)): 40%; kinase still bound, per cent of control [2]: 2.5%; kinase still bound, per cent of control (STK16 (human)): 21%; kinase still bound, per cent of control (CDK9 (human)): 88%; kinase still bound, per cent of control (MAPK14 (human)): 100%; kinase still bound, per cent of control (EPHA6 (human)): 8.2%; kinase still bound, per cent of control (MAP3K15 (human)): 28%; kinase still bound, per cent of control (PIP5K1C (human)): 27%; kinase still bound, per cent of control (STK11 (human)): 4.8%; kinase still bound, per cent of control (CAMK2D (human)): 6.7%; kinase still bound, per cent of control (MST1R (human)): 12%; kinase still bound, per cent of control [3]: 0%; kinase still bound, per cent of control (FYN (human)): 0.05%; kinase still bound, per cent of control (GRK1 (human)): 0.6%; kinase still bound, per cent of control (ICK (human)): 100%; kinase still bound, per cent of control (PRKCD (human)): 0.65%; kinase still bound, per cent of control (FGR (human)): 0.2%; kinase still bound, per cent of control (PRKD2 (human)): 0.9%
N#CCNC(=O)c1ccc(-c2ccnc(Nc3ccc(N4CCOCC4)cc3)n2)cc1 | 86% | 22% | 0% | 9.3% | 55% | 40% | 15% | 8.7% | 71% | 100% | 100% | 88% | 100% | 54% | 100% | 11% | 42% | 100% | 65% | 100% | kinase still bound, per cent of control (AAK1 (human)): 3.9%; kinase still bound, per cent of control (MLTK (human)): 100%; kinase still bound, per cent of control [2]: 100%; kinase still bound, per cent of control (STK16 (human)): 6.2%; kinase still bound, per cent of control (CDK9 (human)): 55%; kinase still bound, per cent of control (MAPK14 (human)): 100%; kinase still bound, per cent of control (EPHA6 (human)): 98%; kinase still bound, per cent of control (MAP3K15 (human)): 68%; kinase still bound, per cent of control (PIP5K1C (human)): 54%; kinase still bound, per cent of control (STK11 (human)): 61%; kinase still bound, per cent of control (CAMK2D (human)): 34%; kinase still bound, per cent of control (MST1R (human)): 100%; kinase still bound, per cent of control [3]: 0.3%; kinase still bound, per cent of control (FYN (human)): 78%; kinase still bound, per cent of control (GRK1 (human)): 100%; kinase still bound, per cent of control (ICK (human)): 100%; kinase still bound, per cent of control (PRKCD (human)): 54%; kinase still bound, per cent of control (FGR (human)): 92%; kinase still bound, per cent of control (PRKD2 (human)): 43%
